# Reference: ChEMBL document CHEMBL5518248, “Design, Synthesis, and Biological Evaluation of Novel Arylomycins against Multidrug-Resistant Gram-Negative Bacteria” (J Med Chem, 2024)
# Activity calls are given as the source filed them. The rule behind the calls is not given here.
# Columns and labels:
# [1] = MRT in Sprague-Dawley rat at 10 mg/kg, iv measured upto 24 hrs LC-MS/MS analysis; assay type: ADME, organism-based; settings: in vivo
# [2] = Half life in Sprague-Dawley rat at 10 mg/kg, iv measured upto 24 hrs LC-MS/MS analysis; assay type: ADME, organism-based; settings: in vivo
# [3] = Volume of distribution at steady state in Sprague-Dawley rat at 10 mg/kg, iv measured upto 24 hrs LC-MS/MS analysis; assay type: ADME, organism-based; settings: in vivo, read-out: Vdss
# [4] = AUC (0 to t) in Sprague-Dawley rat at 10 mg/kg, iv measured upto 24 hrs LC-MS/MS analysis; assay type: ADME, organism-based; settings: Sprague-Dawley, in vivo
# [5] = Clearance in Sprague-Dawley rat at 10 mg/kg, iv measured upto 24 hrs LC-MS/MS analysis; assay type: ADME, organism-based; settings: in vivo
# [6] = test system: Pseudomonas aeruginosa; assay: Antibacterial activity against Pseudomonas aeruginosa T-2022 assessed as inhibition of bacterial growth measured after 18 to 20 hrs by broth microdilution method; assay type: functional; settings: time 18-20 hrs
# [7] = test system: Acinetobacter baumannii; assay: Antibacterial activity against Acinetobacter baumannii 17-8 assessed as inhibition of bacterial growth measured after 18 to 20 hrs by broth microdilution method; assay type: functional; settings: time 18-20 hrs
# [8] = test system: Escherichia coli; assay: Antibacterial activity against Escherichia coli 14-2 assessed as inhibition of bacterial growth measured after 18 to 20 hrs by broth microdilution method; assay type: functional; settings: time 18-20 hrs
# [9] = test system: Acinetobacter baumannii; assay: Antibacterial activity against Acinetobacter baumannii 17-2 assessed as inhibition of bacterial growth measured after 18 to 20 hrs by broth microdilution method; assay type: functional; settings: time 18-20 hrs
# [10] = test system: Klebsiella pneumoniae; assay: Antibacterial activity against Klebsiella pneumoniae 15-1 assessed as inhibition of bacterial growth measured after 18 to 20 hrs by broth microdilution method; assay type: functional; settings: time 18-20 hrs
# [11] = test system: Klebsiella pneumoniae; assay: Antibacterial activity against Klebsiella pneumoniae 15-5 assessed as inhibition of bacterial growth measured after 18 to 20 hrs by broth microdilution method; assay type: functional; settings: time 18-20 hrs
# [12] = test system: Escherichia coli; assay: Antibacterial activity against Escherichia coli ATCC 35218 assessed as inhibition of bacterial growth measured after 18 to 20 hrs by broth microdilution method; assay type: functional; settings: time 18-20 hrs
# [13] = test system: Escherichia coli; assay: Antibacterial activity against Escherichia coli 14-4 assessed as inhibition of bacterial growth measured after 18 to 20 hrs by broth microdilution method; assay type: functional; settings: time 18-20 hrs
# [14] = test system: Pseudomonas aeruginosa; assay: Antibacterial efficacy against multi drug resistant Pseudomonas aeruginosa T-2022-D2-048 infected in cyclophosphamide-induced neutropenic thigh infection ICR mouse model assessed as decrease in bacterial burden at 40 mg/kg, iv dose measured after 24 hrs; assay type: functional, organism-based
# [15] = test system: Pseudomonas aeruginosa; assay: Antibacterial activity against Pseudomonas aeruginosa 19-5 assessed as inhibition of bacterial growth measured after 18 to 20 hrs by broth microdilution method; assay type: functional; settings: time 18-20 hrs
# [16] = test system: Pseudomonas aeruginosa; assay: Antibacterial activity against Pseudomonas aeruginosa 17-1 assessed as inhibition of bacterial growth measured after 18 to 20 hrs by broth microdilution method; assay type: functional; settings: time 18-20 hrs
# [17] = test system: Klebsiella pneumoniae; assay: Antibacterial activity against Klebsiella pneumoniae 15-4 assessed as inhibition of bacterial growth measured after 18 to 20 hrs by broth microdilution method; assay type: functional; settings: time 18-20 hrs
# [18] = test system: Jurkat; assay: Cytotoxicity against human Jurkat cells assessed as inhibition of cell growth incubated for 24 hrs by CCK8 method; assay type: functional, cell-based
# [19] = Cytotoxicity against HEK293T cells assessed as inhibition of cell growth incubated for 24 hrs by CCK8 method; assay type: toxicity, cell-based, HEK-293T; settings: human
# [20] = test system: Jurkat; assay: Cytotoxicity against human Jurkat cells assessed as inhibition of cell growth at 100 uM incubated for 24 hrs by CCK8 method relative to control; assay type: functional
# [21] = test system: HepG2; assay: Cytotoxicity against human HepG2 cells assessed as inhibition of cell growth incubated for 24 hrs by CCK8 method; assay type: functional, cell-based; settings: HepG2, 24 h
# [22] = test system: HepG2; assay: Cytotoxicity against human HepG2 cells assessed as inhibition of cell growth at 100 uM incubated for 24 hrs by CCK8 method relative to control; assay type: functional
# [23] = Cytotoxicity against HEK293T cells assessed as inhibition of cell growth at 100 uM incubated for 24 hrs by CCK8 method relative to control; assay type: toxicity, cell-based, HEK-293T; settings: human
# [24] = test system: Pseudomonas aeruginosa; assay: Antibacterial efficacy against multi drug resistant Pseudomonas aeruginosa T-2022-D2-048 infected in cyclophosphamide-induced neutropenic thigh infection ICR mouse model assessed as decrease in bacterial burden administered as iv dose measured after 24 hrs; assay type: functional, organism-based; settings: dose 3-12 mg/kg
Compound,MIC [7],MIC [8],MIC [9],MIC [10],MIC [11],MIC [12],MIC [13],MIC [15],MIC [16],MIC [17],IC50 [18],IC50 at 24 h [19],inhibition at 100 µM [20],IC50 [21],inhibition at 100 µM [22],"inhibition at 24 h, 100 µM [23]",other results
CCCCSSCc1ccc(-c2ncc(C(=O)N[C@@H](CCN)C(=O)N(C)[C@@H]3C(=O)N[C@@H](C)C(=O)N[C@H](C(=O)NCC#N)Cc4ccc(OCCN)c(c4)-c4cc3ccc4OCCN)c(C)n2)cc1,,,,,,,,,,,,,,,,,MRT [1]: 1.27 h; half-life [2]: 1.04 h; Vd [3]: 0.273 L/kg; AUC(0-t) at 24 h [4]: 46300 ng·h/mL; clearance [5]: 3.6 mL/min/kg
C[C@@H](O)[C@H]1C(=O)N2C(C(=O)O)=C(S[C@@H]3CN[C@H](C(=O)N(C)C)C3)[C@H](C)[C@H]12 [MEROPENEM],> 64 µg/mL,2 µg/mL,> 64 µg/mL,> 64 µg/mL,> 64 µg/mL,0.06 µg/mL,2 µg/mL,32 µg/mL,8 µg/mL,> 64 µg/mL,,,,,,,MIC [6]: > 64 µg/mL; Activity [14]: Active
Cc1nc(-c2ccc(SSC(C)(C)C)cc2)ncc1C(=O)N[C@@H](CCN)C(=O)N(C)[C@@H]1C(=O)N[C@@H](C)C(=O)N[C@H](C(=O)O)Cc2ccc(OCCN)c(c2)-c2cc1ccc2OCCN.O=C(O)C(F)(F)F.O=C(O)C(F)(F)F.O=C(O)C(F)(F)F.O=C(O)C(F)(F)F,1 µg/mL,≤ 0.03 µg/mL,0.5 µg/mL,≤ 0.03 µg/mL,≤ 0.03 µg/mL,≤ 0.03 µg/mL,0.06 µg/mL,16 µg/mL,32 µg/mL,≤ 0.03 µg/mL,> 100 µM,> 100 µM,44.8%,> 100 µM,-4.95%,26.1%,
Cc1nc(-c2ccc(CSSC3CCCC3)cc2)ncc1C(=O)N[C@@H](CCN)C(=O)N(C)[C@@H]1C(=O)N[C@@H](C)C(=O)N[C@H](C(=O)NCC#N)Cc2ccc(OCCN)c(c2)-c2cc1ccc2OCCN.O=C(O)C(F)(F)F.O=C(O)C(F)(F)F.O=C(O)C(F)(F)F.O=C(O)C(F)(F)F,0.25 µg/mL,0.125 µg/mL,1 µg/mL,0.125 µg/mL,0.06 µg/mL,≤ 0.03 µg/mL,≤ 0.03 µg/mL,4 µg/mL,4 µg/mL,0.06 µg/mL,> 100 µM,> 100 µM,35.4%,> 100 µM,3.22%,42.6%,
Cc1nc(-c2ccc(SSC(C)(C)C)cc2)ncc1C(=O)N[C@@H](CCN)C(=O)N(C)[C@@H]1C(=O)N[C@@H](C)C(=O)N[C@H](C(=O)NCC#N)Cc2ccc(OCCN)c(c2)-c2cc1ccc2OCCN.O=C(O)C(F)(F)F.O=C(O)C(F)(F)F.O=C(O)C(F)(F)F.O=C(O)C(F)(F)F,0.5 µg/mL,≤ 0.03 µg/mL,0.25 µg/mL,≤ 0.03 µg/mL,≤ 0.03 µg/mL,≤ 0.03 µg/mL,≤ 0.03 µg/mL,4 µg/mL,4 µg/mL,≤ 0.03 µg/mL,> 100 µM,> 100 µM,38.2%,> 100 µM,-1.65%,51.5%,
Cc1nc(-c2ccc(SSC(C)(C)C)cc2)ncc1C(=O)N[C@@H](CCN)C(=O)N(C)[C@@H]1C(=O)N[C@@H](C)C(=O)N[C@H](C(=O)NCC#N)Cc2ccc(OCCN)c(c2)-c2cc1ccc2OCCN,,,,,,,,,,,,,,,,,MRT [1]: 4.4 h; half-life [2]: 2.8 h; Vd [3]: 0.252 L/kg; AUC(0-t) at 24 h [4]: 170000 ng·h/mL; clearance [5]: 0.954 mL/min/kg
CCCSSCc1ccc(-c2ncc(C(=O)N[C@@H](CCN)C(=O)N(C)[C@@H]3C(=O)N[C@@H](C)C(=O)N[C@H](C(=O)NCC#N)Cc4ccc(OCCN)c(c4)-c4cc3ccc4OCCN)c(C)n2)cc1,,,,,,,,,,,,,,,,,MRT [1]: 0.44 h; half-life [2]: 0.37 h; Vd [3]: 0.285 L/kg; AUC(0-t) at 24 h [4]: 15300 ng·h/mL; clearance [5]: 10.8 mL/min/kg
CCCCSSCc1ccc(-c2ncc(C(=O)N[C@@H](CCN)C(=O)N(C)[C@@H]3C(=O)N[C@@H](C)C(=O)N[C@H](C(=O)NCC#N)Cc4ccc(OCCN)c(c4)-c4cc3ccc4OCCN)c(C)n2)cc1.O=C(O)C(F)(F)F.O=C(O)C(F)(F)F.O=C(O)C(F)(F)F.O=C(O)C(F)(F)F,0.125 µg/mL,≤ 0.03 µg/mL,0.5 µg/mL,≤ 0.03 µg/mL,≤ 0.03 µg/mL,≤ 0.03 µg/mL,≤ 0.03 µg/mL,8 µg/mL,8 µg/mL,≤ 0.03 µg/mL,> 100 µM,> 100 µM,50.6%,> 100 µM,-3.33%,41%,
CCCSSCc1ccc(-c2ncc(C(=O)N[C@@H](CCN)C(=O)N(C)[C@@H]3C(=O)N[C@@H](C)C(=O)N[C@H](C(=O)NCC#N)Cc4ccc(OCCN)c(c4)-c4cc3ccc4OCCN)c(C)n2)cc1.O=C(O)C(F)(F)F.O=C(O)C(F)(F)F.O=C(O)C(F)(F)F.O=C(O)C(F)(F)F,0.125 µg/mL,≤ 0.03 µg/mL,0.25 µg/mL,≤ 0.03 µg/mL,≤ 0.03 µg/mL,≤ 0.03 µg/mL,≤ 0.03 µg/mL,8 µg/mL,4 µg/mL,0.06 µg/mL,> 100 µM,> 100 µM,32.5%,> 100 µM,-3.61%,29.9%,
Cc1nc(-c2ccc(CSSC(C)(C)C)cc2)ncc1C(=O)N[C@@H](CCN)C(=O)N(C)[C@@H]1C(=O)N[C@@H](C)C(=O)N[C@H](C(=O)O)Cc2ccc(OCCN)c(c2)-c2cc1ccc2OCCN.O=C(O)C(F)(F)F.O=C(O)C(F)(F)F.O=C(O)C(F)(F)F.O=C(O)C(F)(F)F,0.5 µg/mL,≤ 0.03 µg/mL,0.25 µg/mL,≤ 0.03 µg/mL,≤ 0.03 µg/mL,≤ 0.03 µg/mL,≤ 0.03 µg/mL,32 µg/mL,4 µg/mL,≤ 0.03 µg/mL,> 100 µM,> 100 µM,27.7%,> 100 µM,-0.02%,36.6%,
Cc1nc(-c2ccc(CSSC(C)(C)C)cc2)ncc1C(=O)N[C@@H](CCN)C(=O)N(C)[C@@H]1C(=O)N[C@@H](C)C(=O)N[C@H](C(=O)NCC#N)Cc2ccc(OCCN)c(c2)-c2cc1ccc2OCCN,,,,,,,,,,,,,,,,,Activity [24]: Dose-Dependent Effect
C[C@H]1COc2c(N3CCN(C)CC3)c(F)cc3c(=O)c(C(=O)O)cn1c23 [LEVOFLOXACIN ANHYDROUS],,,,,,,,,,,,,,,,,MIC [6]: > 64 µg/mL
